Laboratory results from patent US6461997B1, “Triazole sulfones having herbicidal activity” (Monsanto Technology LLC, priority 1999, dated 2002).

Tests used:
DIGSA (large crabgrass) [1] = assay: Pre-emergence herbicidal activity, warm season; assay type: in vivo, Digitaria sanguinalis
How it was run: (§1)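 Each pot received seeds on sterilized fertilized topsoil, a soil cover, and a surface spray of compound (300–10 g/ha, acetone/water 50:50). Plants grew about 14 days at 30/21 °C (PANMI, DIGSA) or 18/13 °C (ALOMY, POLCO) before inhibition was rated against untreated pots to give GR80.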

[2] = test system: PANMI (wild proso millet); assay: Pre-emergence herbicidal activity, warm season; assay type: in vivo, Panicum miliaceum
How it was run: as §1

[3] = test system: GALAP (catchweed bedstraw); assay: Pre-plant incorporated (PPI) herbicidal activity, cool season; assay type: in vivo, Galium aparine
Experimental: (§2) In another set of tests, the pre-plant incorporated (PPI) activity of compounds of this invention was evaluated on the same species as for the pre-emergence tests described above. In the PPI tests the following procedure, designed to simulate PPI application, was used.
(§3) A pre-prepared topsoil mixture (described above) was placed in a pot and compacted to a depth of 1.0 to 1.25 cm from the top of the pot. Seeds of each of several monocotyledonous and dicotyledonous annual plant species were placed on top of the soil. A sufficient quantity of soil to cover the seeds and level fill the pot was weighed into an open container. A known amount of the test compound was dissolved or suspended in an organic solvent and applied by spraying to this cover soil. The cover soil was thoroughly mixed to distribute the test compound throughout the cover soil, and was then applied as a cover layer over the seeds. Untreated soil was used as a cover layer for control pots. After treatment the plants were placed in a greenhouse where they received 0.64 cm of overhead irrigation. All subsequent watering consisted of a light overhead mist and/or subirrigation as needed for germination and growth. Tables 9 and 10 below relate to warm season plant species which were placed after pre-emergence treatment in a greenhouse with a 30/21° C. day/night temperature regime. Tables 11 and 12 below relates to cool season plant species placed after pre-emergence treatment in a greenhouse or growth chamber with an 18/13° C. day/night temperature regime. Only the compounds of Examples 1, 6, 8, 11, 13 and 15-20 were included in PPI tests.
(§4) Approximately 14 days after planting and treating, the plants were observed and herbicidal efficacy recorded as percent inhibition by comparison with untreated plants.

DIGSA (large crabgrass) [4] = assay: Pre-plant incorporated (PPI) herbicidal activity, warm season; assay type: in vivo, Digitaria sanguinalis
Experimental: as §2, §3, §4

SETVI (green foxtail) = assay: Pre-emergence herbicidal activity, cool season; assay type: in vivo, Setaria viridis; conditions: GR80 = lowest tested rate (300, 100, 30, 10 g/ha) with 80% or greater inhibition; approx. 14 days after treating; 18/13° C.
How it was run: (§5)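 Seeds sown in sterilised fertilised topsoil received surface-applied compound in 50:50 acetone/water, typically at 300, 100, 30 and 10 g/ha, then greenhouse-grown at 30/21° C (warm-season species) or 18/13° C (cool-season species). Percent inhibition versus untreated plants was scored at about 14 days, giving GR80; an asterisk marks activity short of 80% at the top rate.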

[5] = test system: BRAPP (broadleaf signalgrass); assay: Pre-emergence herbicidal activity, warm season; assay type: in vivo, Brachiaria platyphylla
How it was run: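 Activity is expressed as the rate giving 80% inhibition, with 300, 100, 30 and 10 g/ha typically tested. An asterisk marks activity short of 80% at the top rate. Warm-season grasses were held at 30/21 °C; cool-season blackgrass and wild buckwheat at 18/13 °C; scoring at about 14 days.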

POAAN (annual bluegrass) = assay: Pre-plant incorporated (PPI) herbicidal activity, cool season; assay type: in vivo, Poa annua; conditions: Poa annua, weed, PPI application, read-out: Percent inhibition POAAN
Experimental: as §2, §3, §4

POROL (common purslane) = assay: Pre-emergence herbicidal activity, warm season; assay type: in vivo, Portulaca oleracea; conditions: GR80 = lowest tested rate (300, 100, 30, 10 g/ha) with 80% or greater inhibition; approx. 14 days after treating; 30/21° C.
How it was run: as §5

[6] = test system: AGSST (creeping bentgrass); assay: Pre-emergence herbicidal activity, cool season; assay type: in vivo, Agrostis stolonifera; conditions: GR80 = lowest tested rate (300, 100, 30, 10 g/ha) with 80% or greater inhibition; approx. 14 days after treating; 18/13° C.
How it was run: as §5

[7] = test system: AGRRE (quackgrass (seedling)); assay: Pre-plant incorporated (PPI) herbicidal activity, cool season; assay type: in vivo, Elymus repens
Experimental: as §2, §3, §4

AMARE (redroot pigweed) = assay: Pre-emergence herbicidal activity, warm season; assay type: in vivo, Amaranthus retroflexus
How it was run: as §5

[8] = test system: AEGCY (jointed goatgrass); assay: Pre-plant incorporated (PPI) herbicidal activity, cool season; assay type: in vivo, Aegilops cylindrica
Experimental: as §2, §3, §4

LOLMG (annual ryegrass) = assay: as above; assay type: in vivo, Lolium multiflorum
Experimental: as §2, §3, §4

[9] = GR80 = lowest tested rate (300, 100, 30, 10 g/ha) with 80% or greater inhibition, approx. 14 days after treating, 30/21° C.
[10] = pre-plant incorporated, lowest tested rate with 80% or greater inhibition, about 14 days

With `CCN(CC)C(=O)n1cnc(S(=O)(=O)C(F)(F)Br)n1` [Example 1, 3-(bromodifluoromethylsulfonyl)-1-(N,N-diethylcarbamoyl)-1,2,4-triazole] the inhibition at 10 g/ha (DIGSA (large crabgrass) [1]; Digitaria sanguinalis, pre-emergence application, 10 g/ha, read-out: Percent inhibition, weed DIGSA) was 0%, the inhibition at 30 g/ha (DIGSA (large crabgrass) [1]; Digitaria sanguinalis, pre-emergence application, 30 g/ha, read-out: Percent inhibition, weed DIGSA) was 60% and the inhibition at 100 g/ha (DIGSA (large crabgrass) [1]; Digitaria sanguinalis, pre-emergence application, 100 g/ha, read-out: Percent inhibition, weed DIGSA) was 100%. The inhibition at 300 g/ha (DIGSA (large crabgrass) [1]; Digitaria sanguinalis, pre-emergence application, 300 g/ha, read-out: Percent inhibition, weed DIGSA) was 100%, the inhibition at 900 g/ha (DIGSA (large crabgrass) [1]; Digitaria sanguinalis, pre-emergence application, 900 g/ha, read-out: Percent inhibition, weed DIGSA) was 100% and the “Pre-emergence activity (GR80) DIGSA” value (DIGSA (large crabgrass) [1]; [9]) was 30 g/ha. For the same compound, the “Pre-emergence activity (GR80) PANMI” value [2, 9] was 100 g/ha, the inhibition at 10 g/ha ([2]; Panicum miliaceum, pre-emergence application, 10 g/ha, read-out: Percent inhibition, weed PANMI) was 0% and the inhibition at 30 g/ha ([2]; Panicum miliaceum, pre-emergence application, 30 g/ha, read-out: Percent inhibition, weed PANMI) was 0%. The inhibition at 100 g/ha ([2]; Panicum miliaceum, pre-emergence application, 100 g/ha, read-out: Percent inhibition, weed PANMI) was 30%, the inhibition at 300 g/ha ([2]; Panicum miliaceum, pre-emergence application, 300 g/ha, read-out: Percent inhibition, weed PANMI) was 100% and the inhibition at 900 g/ha ([2]; Panicum miliaceum, pre-emergence application, 900 g/ha, read-out: Percent inhibition, weed PANMI) was 90%. For the same compound, the inhibition at 30 g/ha ([3]; Galium aparine, weed, PPI application, 30 g/ha, read-out: Percent inhibition GALAP) was 70%, the inhibition at 100 g/ha ([3]; Galium aparine, weed, PPI application, 100 g/ha, read-out: Percent inhibition GALAP) was 100% and the inhibition at 300 g/ha ([3]; Galium aparine, weed, PPI application, 300 g/ha, read-out: Percent inhibition GALAP) was 100%. The inhibition at 900 g/ha ([3]; Galium aparine, weed, PPI application, 900 g/ha, read-out: Percent inhibition GALAP) was 100%, the “PPI activity GR80, GALAP” value [3, 10] was 100 g/ha and the inhibition at 10 g/ha (DIGSA (large crabgrass) [4]; Digitaria sanguinalis, PPI application, 10 g/ha, read-out: Percent inhibition DIGSA) was 80%. The inhibition at 30 g/ha (DIGSA (large crabgrass) [4]; Digitaria sanguinalis, PPI application, 30 g/ha, read-out: Percent inhibition DIGSA) was 95%, the inhibition at 100 g/ha (DIGSA (large crabgrass) [4]; Digitaria sanguinalis, PPI application, 100 g/ha, read-out: Percent inhibition DIGSA) was 100% and the inhibition at 300 g/ha (DIGSA (large crabgrass) [4]; Digitaria sanguinalis, PPI application, 300 g/ha, read-out: Percent inhibition DIGSA) was 100%. The inhibition at 900 g/ha (DIGSA (large crabgrass) [4]; Digitaria sanguinalis, PPI application, 900 g/ha, read-out: Percent inhibition DIGSA) was 100%, the “PPI activity GR80, DIGSA” value (DIGSA (large crabgrass) [4]; [10]) was 100 g/ha and the “Pre-emergence activity (GR80) SETVI” value (SETVI (green foxtail)) was 30 g/ha. The “Pre-emergence activity (GR80) BRAPP” value [5, 9] was “* (activity observed, at least at highest rate, but <80% inhibition)”, the inhibition at 10 g/ha ([5]; Urochloa platyphylla, pre-emergence application, 10 g/ha, read-out: Percent inhibition, weed BRAPP) was 0% and the inhibition at 30 g/ha ([5]; Urochloa platyphylla, pre-emergence application, 30 g/ha, read-out: Percent inhibition, weed BRAPP) was 0%. The inhibition at 100 g/ha ([5]; Urochloa platyphylla, pre-emergence application, 100 g/ha, read-out: Percent inhibition, weed BRAPP) was 40%, the inhibition at 300 g/ha ([5]; Urochloa platyphylla, pre-emergence application, 300 g/ha, read-out: Percent inhibition, weed BRAPP) was 70% and the inhibition at 30 g/ha (POAAN (annual bluegrass); 30 g/ha) was 90%. It also gave an inhibition at 100 g/ha (POAAN (annual bluegrass); 100 g/ha) of 99%, an inhibition at 300 g/ha (POAAN (annual bluegrass); 300 g/ha) of 100% and an inhibition at 900 g/ha (POAAN (annual bluegrass); 900 g/ha) of 100%. The “Pre-emergence activity (GR80) POROL” value (POROL (common purslane)) was 100 g/ha, the “Pre-emergence activity (GR80) AGSST” value [6] was 30 g/ha and the inhibition at 30 g/ha ([7]; Elymus repens, weed, PPI application, 30 g/ha, read-out: Percent inhibition AGRRE) was 0%. It also gave an inhibition at 100 g/ha ([7]; Elymus repens, weed, PPI application, 100 g/ha, read-out: Percent inhibition AGRRE) of 20%, an inhibition at 300 g/ha ([7]; Elymus repens, weed, PPI application, 300 g/ha, read-out: Percent inhibition AGRRE) of 60% and an inhibition at 900 g/ha ([7]; Elymus repens, weed, PPI application, 900 g/ha, read-out: Percent inhibition AGRRE) of 95%. For the same compound, the “PPI activity GR80, AGRRE” value [7, 10] was “* (activity observed, at least at highest rate, but <80% inhibition)”, the inhibition at 10 g/ha (AMARE (redroot pigweed); Amaranthus retroflexus, pre-emergence application, 10 g/ha, read-out: Percent inhibition, weed AMARE) was 0% and the inhibition at 30 g/ha (AMARE (redroot pigweed); Amaranthus retroflexus, pre-emergence application, 30 g/ha, read-out: Percent inhibition, weed AMARE) was 0%. The inhibition at 100 g/ha (AMARE (redroot pigweed); Amaranthus retroflexus, pre-emergence application, 100 g/ha, read-out: Percent inhibition, weed AMARE) was 60%, the inhibition at 300 g/ha (AMARE (redroot pigweed); Amaranthus retroflexus, pre-emergence application, 300 g/ha, read-out: Percent inhibition, weed AMARE) was 50% and the inhibition at 900 g/ha (AMARE (redroot pigweed); Amaranthus retroflexus, pre-emergence application, 900 g/ha, read-out: Percent inhibition, weed AMARE) was 90%. The “Pre-emergence activity (GR80) AMARE” value (AMARE (redroot pigweed); [9]) was 30 g/ha, the inhibition at 30 g/ha ([8]; Aegilops cylindrica, weed, PPI application, 30 g/ha, read-out: Percent inhibition AEGCY) was 0% and the inhibition at 100 g/ha ([8]; Aegilops cylindrica, weed, PPI application, 100 g/ha, read-out: Percent inhibition AEGCY) was 0%. The inhibition at 300 g/ha ([8]; Aegilops cylindrica, weed, PPI application, 300 g/ha, read-out: Percent inhibition AEGCY) was 40%, the inhibition at 900 g/ha ([8]; Aegilops cylindrica, weed, PPI application, 900 g/ha, read-out: Percent inhibition AEGCY) was 60% and the “PPI activity GR80, AEGCY” value [8, 10] was “[empty]”. The inhibition at 30 g/ha (LOLMG (annual ryegrass); Lolium multiflorum, weed, PPI application, 30 g/ha, read-out: Percent inhibition LOLMG) was 95%, the inhibition at 100 g/ha (LOLMG (annual ryegrass); Lolium multiflorum, weed, PPI application, 100 g/ha, read-out: Percent inhibition LOLMG) was 95% and the inhibition at 300 g/ha (LOLMG (annual ryegrass); Lolium multiflorum, weed, PPI application, 300 g/ha, read-out: Percent inhibition LOLMG) was 100%. The inhibition at 900 g/ha (LOLMG (annual ryegrass); Lolium multiflorum, weed, PPI application, 900 g/ha, read-out: Percent inhibition LOLMG) was 100% and the “PPI activity GR80, LOLMG” value (LOLMG (annual ryegrass); [10]) was 300 g/ha.
